# Experiments:
# Type in all cases: biochemical
# PDGFRα = target: T1, PDGFRα (Homo sapiens, UniProt P16234); experiment: Kinase inhibition assay (ELISA)
# T1 construct: purchased Eurofins (Fremont, United States)
# Experimental: (§1) Active FGFR1–4, VEGFR1, KDR, VEGFR3, PDGFRα and PDGFRβ proteins were purchased from Eurofins (Fremont, United States), and kinase activity was assessed using ELISA, as previously reported. […]. Increasing concentrations of ATP were diluted for the kinase reaction in the ATP competition assay. CSF-1R kinase activity was analyzed using the Z’-LYTE™ Kinase Assay Kit (Thermo Fisher, United States). The assay formats are described in the SelectScreen Kinase Profiling Service Zlyte protocol. IC50 values were calculated by dose-response curve fitting using Prism (Graph Pad).
# PDGFRβ = target: T2, PDGFRβ (Homo sapiens, UniProt P09619); experiment: Kinase inhibition assay (ELISA)
# T2 construct: purchased Eurofins (Fremont, United States)
# Experimental: as §1
# VEGFR1 = target: T3, VEGFR1 (Homo sapiens, UniProt P17948); experiment: Kinase inhibition assay (ELISA)
# T3 construct: purchased Eurofins (Fremont, United States)
# Experimental: as §1
# VEGFR3 = target: T4, VEGFR3 (Homo sapiens, UniProt P35916); experiment: Kinase inhibition assay (ELISA)
# T4 construct: purchased Eurofins (Fremont, United States)
# Experimental: as §1
# CK1γ1(h) = target: T5, CK1γ1(h) (Homo sapiens, UniProt Q9HCP0); experiment: Eurofins kinase panel; settings: read-out: Inhibition rate (%)
# T5 construct: purchased Eurofins (KinaseProfiler)
# T5 sequence (Q9HCP0 whole entry): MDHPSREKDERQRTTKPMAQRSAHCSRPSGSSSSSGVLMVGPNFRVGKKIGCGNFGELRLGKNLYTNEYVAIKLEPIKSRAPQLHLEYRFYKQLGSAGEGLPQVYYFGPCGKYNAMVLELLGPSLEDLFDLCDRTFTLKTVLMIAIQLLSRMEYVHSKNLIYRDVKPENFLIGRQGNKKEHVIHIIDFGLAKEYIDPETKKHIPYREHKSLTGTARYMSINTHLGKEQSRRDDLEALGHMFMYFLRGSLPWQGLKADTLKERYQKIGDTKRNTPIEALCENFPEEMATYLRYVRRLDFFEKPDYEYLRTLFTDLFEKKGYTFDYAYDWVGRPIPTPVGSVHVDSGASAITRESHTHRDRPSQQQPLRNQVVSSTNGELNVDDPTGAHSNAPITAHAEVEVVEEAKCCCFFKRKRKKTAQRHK
# Experimental: as §1
# EphB4(h) = target: T6, EphB4(h) (Homo sapiens, UniProt P54760); experiment: Eurofins kinase panel; settings: read-out: Inhibition rate (%)
# T6 construct: purchased Eurofins (KinaseProfiler)
# T6 sequence (P54760 16-987): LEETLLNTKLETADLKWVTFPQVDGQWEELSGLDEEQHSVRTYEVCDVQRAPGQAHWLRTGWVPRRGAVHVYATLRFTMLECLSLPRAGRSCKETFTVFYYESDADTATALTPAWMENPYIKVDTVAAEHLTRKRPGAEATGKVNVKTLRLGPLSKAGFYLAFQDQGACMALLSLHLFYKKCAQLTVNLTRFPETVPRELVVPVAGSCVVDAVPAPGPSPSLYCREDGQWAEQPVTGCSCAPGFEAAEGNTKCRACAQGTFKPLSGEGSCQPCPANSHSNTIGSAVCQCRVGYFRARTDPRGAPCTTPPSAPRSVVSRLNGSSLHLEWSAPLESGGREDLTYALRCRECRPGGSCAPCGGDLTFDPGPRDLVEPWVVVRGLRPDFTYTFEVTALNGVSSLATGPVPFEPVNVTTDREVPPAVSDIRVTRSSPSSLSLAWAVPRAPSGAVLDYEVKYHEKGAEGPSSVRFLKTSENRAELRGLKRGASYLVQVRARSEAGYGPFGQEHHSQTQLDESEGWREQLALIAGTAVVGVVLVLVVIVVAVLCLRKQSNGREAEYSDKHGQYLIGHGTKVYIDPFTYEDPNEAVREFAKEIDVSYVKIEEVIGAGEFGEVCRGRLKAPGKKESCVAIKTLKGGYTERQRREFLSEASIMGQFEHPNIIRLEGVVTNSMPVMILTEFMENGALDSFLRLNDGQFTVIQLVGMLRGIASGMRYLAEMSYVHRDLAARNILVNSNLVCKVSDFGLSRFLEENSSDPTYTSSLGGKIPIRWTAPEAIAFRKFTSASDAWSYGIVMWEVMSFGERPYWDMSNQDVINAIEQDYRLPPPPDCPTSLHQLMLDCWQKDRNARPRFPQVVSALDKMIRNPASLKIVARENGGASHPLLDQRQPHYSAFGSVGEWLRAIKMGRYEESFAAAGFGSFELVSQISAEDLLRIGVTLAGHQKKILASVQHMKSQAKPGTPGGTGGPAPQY
# Experimental: as §1
# MRCKβ(h) = target: T7, MRCKβ(h) (Homo sapiens, UniProt Q9Y5S2); experiment: Eurofins kinase panel; settings: read-out: Inhibition rate (%)
# T7 construct: purchased Eurofins (KinaseProfiler)
# T7 sequence (Q9Y5S2 whole entry): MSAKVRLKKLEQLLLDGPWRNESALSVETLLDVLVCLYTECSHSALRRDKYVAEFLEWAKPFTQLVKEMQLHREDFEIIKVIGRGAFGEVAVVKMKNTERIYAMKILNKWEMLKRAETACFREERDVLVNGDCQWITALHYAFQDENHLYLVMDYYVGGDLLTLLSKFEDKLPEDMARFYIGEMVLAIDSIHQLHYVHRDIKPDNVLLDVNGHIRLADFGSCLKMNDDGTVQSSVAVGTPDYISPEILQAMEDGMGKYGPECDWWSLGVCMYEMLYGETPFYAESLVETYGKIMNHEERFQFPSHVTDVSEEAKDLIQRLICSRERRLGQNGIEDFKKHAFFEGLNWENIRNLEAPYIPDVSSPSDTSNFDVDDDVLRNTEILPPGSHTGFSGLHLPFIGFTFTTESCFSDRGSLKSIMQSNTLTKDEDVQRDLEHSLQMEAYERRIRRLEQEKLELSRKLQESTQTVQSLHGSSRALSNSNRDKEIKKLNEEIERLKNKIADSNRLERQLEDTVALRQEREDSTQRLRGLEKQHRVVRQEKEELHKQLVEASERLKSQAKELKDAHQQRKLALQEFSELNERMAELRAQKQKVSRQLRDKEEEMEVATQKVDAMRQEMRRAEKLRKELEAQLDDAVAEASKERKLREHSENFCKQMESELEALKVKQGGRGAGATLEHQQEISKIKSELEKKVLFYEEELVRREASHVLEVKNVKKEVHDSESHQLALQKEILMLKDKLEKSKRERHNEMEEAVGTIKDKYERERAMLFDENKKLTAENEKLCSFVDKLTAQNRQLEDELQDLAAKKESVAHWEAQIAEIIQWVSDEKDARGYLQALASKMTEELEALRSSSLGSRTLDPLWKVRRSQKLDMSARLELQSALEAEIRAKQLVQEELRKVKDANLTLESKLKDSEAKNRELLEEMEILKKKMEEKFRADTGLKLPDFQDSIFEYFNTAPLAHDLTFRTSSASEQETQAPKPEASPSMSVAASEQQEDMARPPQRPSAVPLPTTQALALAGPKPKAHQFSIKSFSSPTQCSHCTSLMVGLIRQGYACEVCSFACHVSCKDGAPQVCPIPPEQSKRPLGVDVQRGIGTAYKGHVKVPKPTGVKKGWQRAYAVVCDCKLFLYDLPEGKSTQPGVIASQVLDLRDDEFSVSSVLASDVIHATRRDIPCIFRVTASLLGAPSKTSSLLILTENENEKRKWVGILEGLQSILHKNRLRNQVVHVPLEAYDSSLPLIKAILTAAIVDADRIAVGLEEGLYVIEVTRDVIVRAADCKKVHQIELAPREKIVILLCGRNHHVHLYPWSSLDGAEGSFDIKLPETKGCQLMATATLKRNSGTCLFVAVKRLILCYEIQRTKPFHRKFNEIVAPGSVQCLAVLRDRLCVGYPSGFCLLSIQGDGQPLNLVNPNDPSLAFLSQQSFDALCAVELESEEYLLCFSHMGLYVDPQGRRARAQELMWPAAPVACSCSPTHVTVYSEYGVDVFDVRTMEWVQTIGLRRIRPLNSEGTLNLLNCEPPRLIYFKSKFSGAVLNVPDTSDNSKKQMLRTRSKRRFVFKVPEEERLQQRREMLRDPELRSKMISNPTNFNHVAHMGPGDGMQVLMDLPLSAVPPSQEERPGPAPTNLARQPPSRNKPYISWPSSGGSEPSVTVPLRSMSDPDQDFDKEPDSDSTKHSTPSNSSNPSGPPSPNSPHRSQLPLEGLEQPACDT
# Experimental: as §1
# PKCζ(h) = target: T8, PKCζ(h) (Homo sapiens, UniProt Q05513); experiment: Eurofins kinase panel; settings: read-out: Inhibition rate (%)
# T8 construct: purchased Eurofins (KinaseProfiler)
# T8 sequence (Q05513 1-592): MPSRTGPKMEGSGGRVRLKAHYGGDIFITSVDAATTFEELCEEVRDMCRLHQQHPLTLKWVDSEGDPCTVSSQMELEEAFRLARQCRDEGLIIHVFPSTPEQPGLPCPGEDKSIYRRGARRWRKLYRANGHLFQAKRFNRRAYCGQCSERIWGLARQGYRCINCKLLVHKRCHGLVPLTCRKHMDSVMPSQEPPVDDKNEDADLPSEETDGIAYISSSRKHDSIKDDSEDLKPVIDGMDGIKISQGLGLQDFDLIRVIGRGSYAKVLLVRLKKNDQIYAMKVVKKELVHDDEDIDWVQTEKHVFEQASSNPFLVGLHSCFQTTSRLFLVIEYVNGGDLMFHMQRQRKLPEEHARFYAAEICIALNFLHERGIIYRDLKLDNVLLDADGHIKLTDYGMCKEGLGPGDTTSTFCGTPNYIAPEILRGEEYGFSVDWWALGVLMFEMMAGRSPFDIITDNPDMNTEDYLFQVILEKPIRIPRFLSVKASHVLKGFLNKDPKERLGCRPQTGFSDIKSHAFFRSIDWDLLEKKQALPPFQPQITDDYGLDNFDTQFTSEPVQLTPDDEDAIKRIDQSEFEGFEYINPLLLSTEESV
# Experimental: as §1
# Src(T341M)(h) = target: T9, Src(T341M)(h) (Homo sapiens, UniProt P12931, T341M); experiment: Eurofins kinase panel; settings: read-out: Inhibition rate (%)
# T9 construct: purchased Eurofins (KinaseProfiler)
# T9 sequence (P12931 whole entry T341M): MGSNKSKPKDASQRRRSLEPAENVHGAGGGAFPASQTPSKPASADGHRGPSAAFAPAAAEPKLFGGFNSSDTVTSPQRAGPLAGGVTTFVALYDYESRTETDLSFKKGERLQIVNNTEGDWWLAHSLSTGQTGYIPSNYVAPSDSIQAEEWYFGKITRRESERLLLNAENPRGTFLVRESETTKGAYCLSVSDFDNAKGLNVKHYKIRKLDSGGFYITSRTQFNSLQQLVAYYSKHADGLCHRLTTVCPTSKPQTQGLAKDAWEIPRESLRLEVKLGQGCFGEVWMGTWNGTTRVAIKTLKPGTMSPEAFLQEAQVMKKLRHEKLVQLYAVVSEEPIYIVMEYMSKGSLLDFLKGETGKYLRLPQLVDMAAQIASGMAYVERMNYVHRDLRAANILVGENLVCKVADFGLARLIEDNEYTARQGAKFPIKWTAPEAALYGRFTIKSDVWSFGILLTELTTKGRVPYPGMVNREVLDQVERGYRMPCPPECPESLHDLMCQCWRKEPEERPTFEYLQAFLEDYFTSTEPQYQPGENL
# Experimental: as §1
# WNK1(h) = target: T10, WNK1(h) (Homo sapiens, UniProt Q9H4A3); experiment: Eurofins kinase panel; settings: read-out: Inhibition rate (%)
# T10 construct: purchased Eurofins (KinaseProfiler)
# Experimental: as §1
# Wee1(h) = target: T11, Wee1(h) (Homo sapiens, UniProt P30291); experiment: Eurofins kinase panel; settings: read-out: Inhibition rate (%)
# T11 construct: purchased Eurofins (KinaseProfiler)
# T11 sequence (P30291 whole entry): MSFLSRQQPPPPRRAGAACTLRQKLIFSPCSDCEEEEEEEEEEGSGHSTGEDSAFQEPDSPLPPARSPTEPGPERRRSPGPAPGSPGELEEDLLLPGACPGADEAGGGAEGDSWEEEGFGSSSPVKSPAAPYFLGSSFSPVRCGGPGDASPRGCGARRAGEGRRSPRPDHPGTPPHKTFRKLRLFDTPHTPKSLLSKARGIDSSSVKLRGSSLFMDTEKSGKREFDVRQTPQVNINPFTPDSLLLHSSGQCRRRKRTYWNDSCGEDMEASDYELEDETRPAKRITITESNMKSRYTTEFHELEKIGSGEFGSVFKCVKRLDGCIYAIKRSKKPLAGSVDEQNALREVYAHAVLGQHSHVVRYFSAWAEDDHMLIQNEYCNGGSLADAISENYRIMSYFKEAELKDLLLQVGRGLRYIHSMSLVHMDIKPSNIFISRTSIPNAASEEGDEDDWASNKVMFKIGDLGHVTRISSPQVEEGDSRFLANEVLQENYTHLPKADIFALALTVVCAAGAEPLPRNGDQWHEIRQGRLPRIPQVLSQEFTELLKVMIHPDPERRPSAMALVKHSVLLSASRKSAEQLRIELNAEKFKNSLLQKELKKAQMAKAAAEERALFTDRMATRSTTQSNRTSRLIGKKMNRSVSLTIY
# Experimental: as §1
# mTOR/FKBP12(h) = target: T12, mTOR/FKBP12(h) (Homo sapiens, UniProt P42345); experiment: Eurofins kinase panel; settings: read-out: Inhibition rate (%)
# T12 construct: purchased Eurofins (KinaseProfiler)
# T12 sequence (P42345 1362-2549 limits assumed): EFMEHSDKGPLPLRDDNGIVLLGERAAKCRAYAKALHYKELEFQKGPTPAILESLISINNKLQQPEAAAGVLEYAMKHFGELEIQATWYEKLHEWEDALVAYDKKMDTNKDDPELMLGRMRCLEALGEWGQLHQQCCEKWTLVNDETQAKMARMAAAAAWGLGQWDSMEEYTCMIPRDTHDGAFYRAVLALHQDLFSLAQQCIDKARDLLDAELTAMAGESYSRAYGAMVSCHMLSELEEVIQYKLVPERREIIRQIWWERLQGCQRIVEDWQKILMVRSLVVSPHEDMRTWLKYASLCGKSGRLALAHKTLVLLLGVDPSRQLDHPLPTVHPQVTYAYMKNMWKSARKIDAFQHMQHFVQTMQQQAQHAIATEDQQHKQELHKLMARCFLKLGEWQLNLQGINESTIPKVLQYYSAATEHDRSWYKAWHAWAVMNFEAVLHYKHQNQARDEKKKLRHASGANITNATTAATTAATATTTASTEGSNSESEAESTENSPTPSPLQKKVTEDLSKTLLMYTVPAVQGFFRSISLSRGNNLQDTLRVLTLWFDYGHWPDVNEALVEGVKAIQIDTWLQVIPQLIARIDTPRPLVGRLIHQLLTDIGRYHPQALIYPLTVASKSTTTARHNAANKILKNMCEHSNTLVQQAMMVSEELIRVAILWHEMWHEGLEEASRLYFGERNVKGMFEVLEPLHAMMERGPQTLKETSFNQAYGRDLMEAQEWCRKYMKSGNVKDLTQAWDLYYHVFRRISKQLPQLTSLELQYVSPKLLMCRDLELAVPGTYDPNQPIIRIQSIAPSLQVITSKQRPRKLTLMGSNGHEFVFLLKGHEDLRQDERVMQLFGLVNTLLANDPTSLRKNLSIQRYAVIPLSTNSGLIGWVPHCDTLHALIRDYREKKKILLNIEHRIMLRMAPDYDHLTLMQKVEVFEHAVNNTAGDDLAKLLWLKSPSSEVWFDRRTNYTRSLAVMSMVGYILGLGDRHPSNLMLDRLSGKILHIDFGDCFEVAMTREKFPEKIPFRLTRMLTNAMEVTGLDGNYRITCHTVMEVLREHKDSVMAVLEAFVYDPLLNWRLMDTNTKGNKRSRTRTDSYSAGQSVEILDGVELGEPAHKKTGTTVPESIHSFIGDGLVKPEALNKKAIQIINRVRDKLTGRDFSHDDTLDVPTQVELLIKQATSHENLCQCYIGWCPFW
# Experimental: as §1
# MAPKAP-K2(h) = target: T13, MAPKAP-K2(h) (Homo sapiens, UniProt P49137); experiment: Eurofins kinase panel; settings: read-out: Inhibition rate (%)
# T13 construct: purchased Eurofins (KinaseProfiler)
# T13 sequence (P49137 whole entry): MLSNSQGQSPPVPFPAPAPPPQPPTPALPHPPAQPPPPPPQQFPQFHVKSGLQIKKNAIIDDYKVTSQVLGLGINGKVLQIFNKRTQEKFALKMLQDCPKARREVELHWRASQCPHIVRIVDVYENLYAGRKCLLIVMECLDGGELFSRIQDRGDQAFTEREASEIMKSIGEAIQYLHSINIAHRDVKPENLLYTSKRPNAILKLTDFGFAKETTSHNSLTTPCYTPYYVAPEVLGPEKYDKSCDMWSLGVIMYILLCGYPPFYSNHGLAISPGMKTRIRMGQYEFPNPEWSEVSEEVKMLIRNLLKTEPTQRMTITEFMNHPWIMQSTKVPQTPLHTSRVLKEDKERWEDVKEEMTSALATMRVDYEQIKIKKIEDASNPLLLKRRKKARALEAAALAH
compound,measurement,setting,value
COc1cc(OC)c(Cl)c(-c2ccc3c(NC(=O)c4ccc(N5CCNC(C)(C)C5)cc4)n[nH]c3n2)c1Cl [3D185],IC50,PDGFRα,> 1000 nM
same,IC50,PDGFRβ,> 1000 nM
same,IC50,VEGFR1,> 1000 nM
same,IC50,VEGFR3,> 1000 nM
same,inhibition at 0.01 µM,CK1γ1(h); 10 nM,9%
same,inhibition at 0.1 µM,CK1γ1(h); 100 nM,-4%
same,inhibition at 1 µM,CK1γ1(h); 1000 nM,2%
same,inhibition at 0.01 µM,EphB4(h); 10 nM,8%
same,inhibition at 0.1 µM,EphB4(h); 100 nM,-5%
same,inhibition at 1 µM,EphB4(h); 1000 nM,2%
same,inhibition at 0.01 µM,MRCKβ(h); 10 nM,18%
same,inhibition at 0.1 µM,MRCKβ(h); 100 nM,8%
same,inhibition at 1 µM,MRCKβ(h); 1000 nM,21%
same,inhibition at 0.01 µM,PKCζ(h); 10 nM,-11%
same,inhibition at 0.1 µM,PKCζ(h); 100 nM,7%
same,inhibition at 1 µM,PKCζ(h); 1000 nM,-22%
same,inhibition at 0.01 µM,Src(T341M)(h); 10 nM,8%
same,inhibition at 0.1 µM,Src(T341M)(h); 100 nM,33%
same,inhibition at 1 µM,Src(T341M)(h); 1000 nM,88%
same,inhibition at 0.01 µM,WNK1(h); 10 nM,3%
same,inhibition at 0.1 µM,WNK1(h); 100 nM,2%
same,inhibition at 1 µM,WNK1(h); 1000 nM,16%
same,inhibition at 0.01 µM,Wee1(h); 10 nM,-5%
same,inhibition at 0.1 µM,Wee1(h); 100 nM,-16%
same,inhibition at 1 µM,Wee1(h); 1000 nM,6%
same,inhibition at 0.01 µM,mTOR/FKBP12(h); 10 nM,1%
same,inhibition at 0.1 µM,mTOR/FKBP12(h); 100 nM,0%
same,inhibition at 1 µM,mTOR/FKBP12(h); 1000 nM,2%
same,inhibition at 0.01 µM,MAPKAP-K2(h); 10 nM,0%
same,inhibition at 0.1 µM,MAPKAP-K2(h); 100 nM,10%
same,inhibition at 1 µM,MAPKAP-K2(h); 1000 nM,0%

# From article PMC6704710, “Preclinical evaluation of 3D185, a novel potent inhibitor of FGFR1/2/3 and CSF-1R, in FGFR-dependent and macrophage-dominant cancer models” (Journal of Experimental & Clinical Cancer Research : CR, 2019)
